One data set concerns the target T1, α5-GABAA receptor (Homo sapiens, UniProt P18507+P31644).
T1 construct: expressed in transfected cells; host or cells: HEK293, monoclonal stably transfected line
Description: Cell-level screening: whole cell patch clamp, inverse agonist efficacy on α5-GABAA receptor expressed in HEK293. The class given is cell-based. The conditions noted are these: drug 100 nM, GABA 0.05 μM, HEK293 expressing α5, β3 and γ2 subunits, clamped at −60 mV; read-out: Compound inverse agonist efficacy %. The method, boiled down:
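Whole-cell patch clamp at −60 mV on HEK293 stably expressing α5β3γ2, pH 7.4 extracellular/CsCl internal solutions. Current evoked by 0.05 μM GABA, then compound in GABA solution; screening at 100 nM, dose-response 0.3–300 nM. Inverse agonist efficacy as % change of GABA current.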
In general terms: Patch clamp records ionic current or voltage across a cell membrane.

Data set [1] is described as follows: Thermodynamic solubility in simulated intestinal fluid (TS in FaSSIF). It counts as physicochemical. The conditions noted are these: thermodynamic from solid, 37° C. Here is the method: Simulated intestinal fluid FaSSIF: 54.76 mg of FaSSIF-V2 (Biorelevant, batch. V2FAS-0619-A, lot. V2FAS01) was weighed and added to 15 mL of a buffer solution. After dissolving, the solution was supplemented to 30 mL, and put at room temperature for 1 hour before use.
Waters e2695 HPLC high performance liquid chromatography, Mettler XSE105 analytical balance.
Firstly, a 10 mM stock solution was prepared with DMSO, and was diluted with a diluent (ACN: PB buffer 50:50) into 1 μM-200 μM as a standard solution.
Thermodynamic solubility in intestinal fluid (TS in FaSSIF) was simulated. About 0.3 mg of each sample was weighed and added to 1.5 mL of FaSSIF solution, with two parts in parallel, shaken at 1000 rpm at 37° C. for 4 hours, filtered. 1 mL of an initial filtrate was discarded, and 400 μL of the subsequent filtrate was taken. The filtrate was detected by high performance liquid chromatograph (UV).

Each structure is given as a SMILES string. In brackets after ≈: the same amount, converted by molar mass.

As usually defined, the thermodynamic solubility is solubility found after equilibrating the solid with the medium.

T1 sequence (P31644 32-462): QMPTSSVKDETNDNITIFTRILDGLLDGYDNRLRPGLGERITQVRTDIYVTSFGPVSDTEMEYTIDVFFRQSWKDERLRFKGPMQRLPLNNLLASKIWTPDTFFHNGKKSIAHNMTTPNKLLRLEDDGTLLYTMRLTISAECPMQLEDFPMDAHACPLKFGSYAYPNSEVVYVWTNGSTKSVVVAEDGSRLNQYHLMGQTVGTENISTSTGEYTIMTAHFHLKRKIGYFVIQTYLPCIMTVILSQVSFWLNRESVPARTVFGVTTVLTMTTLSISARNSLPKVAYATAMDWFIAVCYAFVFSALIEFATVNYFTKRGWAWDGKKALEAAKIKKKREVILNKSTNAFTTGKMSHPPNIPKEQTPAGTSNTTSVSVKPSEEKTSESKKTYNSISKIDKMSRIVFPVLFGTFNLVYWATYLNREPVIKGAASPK
T1 sequence (P28472 26-473 partner): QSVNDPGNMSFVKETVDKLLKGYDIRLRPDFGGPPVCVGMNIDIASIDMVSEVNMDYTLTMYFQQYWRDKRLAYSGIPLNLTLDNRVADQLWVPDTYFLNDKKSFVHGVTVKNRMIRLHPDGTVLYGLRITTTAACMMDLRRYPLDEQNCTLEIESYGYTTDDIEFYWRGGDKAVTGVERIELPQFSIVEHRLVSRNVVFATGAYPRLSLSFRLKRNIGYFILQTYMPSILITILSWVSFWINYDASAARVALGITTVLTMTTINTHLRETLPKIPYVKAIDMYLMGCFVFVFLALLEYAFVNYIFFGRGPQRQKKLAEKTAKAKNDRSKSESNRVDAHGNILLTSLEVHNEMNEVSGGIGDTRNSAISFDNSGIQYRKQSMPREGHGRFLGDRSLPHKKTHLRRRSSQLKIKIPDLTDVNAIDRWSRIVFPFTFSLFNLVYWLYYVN
T1 sequence (P18507 40-467 isoform P18507-1 limits assumed): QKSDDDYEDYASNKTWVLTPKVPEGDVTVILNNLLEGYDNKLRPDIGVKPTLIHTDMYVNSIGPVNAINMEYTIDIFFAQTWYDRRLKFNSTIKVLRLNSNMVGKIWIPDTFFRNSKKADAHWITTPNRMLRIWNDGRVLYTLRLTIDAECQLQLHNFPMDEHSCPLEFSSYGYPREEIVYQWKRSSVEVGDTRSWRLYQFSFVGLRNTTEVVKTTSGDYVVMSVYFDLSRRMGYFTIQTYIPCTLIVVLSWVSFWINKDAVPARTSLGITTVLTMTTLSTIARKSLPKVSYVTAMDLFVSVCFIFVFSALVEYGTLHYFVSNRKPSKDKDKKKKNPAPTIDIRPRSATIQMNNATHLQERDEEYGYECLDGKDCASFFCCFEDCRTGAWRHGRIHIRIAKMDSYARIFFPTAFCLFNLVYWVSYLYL

As to `COc1cc2nnc(-c3cc(C)on3)n2nc1OCc1ncnn1C` [Embodiment 1, 3-(7-Methoxy-6-((1-methyl-1H-1,2,4-triazol-5-yl)methoxy)-[1,2,4]triazolo[4,3-b]pyridazin-3-yl)-5-methylisoxazole], the inhibition at 0.1 µM at α5-GABAA receptor was found to be 41.9%. For the same molecule, the thermodynamic solubility at 4 h in data set [1] is 146 µg/mL (≈ 427 µM).
For the molecule `COCCOc1ccc(COc2nn3c(-c4cc(C)on4)nnc3cc2OC)nc1` [Embodiment 6], the inhibition at 0.1 µM at α5-GABAA receptor was found to be 42.2%. The same molecule gave a thermodynamic solubility at 4 h in data set [1] of 46.9 µg/mL (≈ 114 µM).
The matching figures for `COc1cc2nnc(-c3cc(C)on3)n2nc1OCc1nccc(OC)c1OC` [Embodiment 7]: 30.1% and 37.8 µg/mL (≈ 94.9 µM).
Consider `COCCCOc1ccc(COc2nn3c(-c4cc(C)on4)nnc3cc2OC)nc1` [Embodiment 9], for which the inhibition at 0.1 µM at α5-GABAA receptor was 40.6%. In addition, in data set [1], the thermodynamic solubility at 4 h was 60.3 µg/mL (≈ 141 µM).
`COc1cc2nnc(-c3cc(C)on3)n2nc1OCc1cnccn1` [Embodiment 19]: the inhibition at 0.1 µM on α5-GABAA receptor amounted to 35.4%. Further, the solubility (thermodynamic) at 4 h in data set [1] is 49.2 µg/mL (≈ 145 µM).
As for `CCNCc1ccc(COc2nn3c(-c4cc(C)on4)nnc3cc2OC)nc1` [Embodiment 21], at α5-GABAA receptor, the inhibition at 0.1 µM was found to be 36.3%. In data set [1], this molecule gave a solubility (thermodynamic) at 4 h of 519 µg/mL (≈ 1310 µM).
The matching figures for `COCc1cc(-c2nnc3cc(OC)c(OCc4ccccn4)nn23)no1` [Embodiment 28, 3-(7-Methoxy-6-(pyridin-2-ylmethoxy)-[1,2,4]triazolo[4,3-b]pyridazin-3-yl)-5-(methoxymethyl)isoxazole]: 35.4% and 55.2 µg/mL (≈ 150 µM).
For `COc1cc2nnc(-c3cc(C)on3)n2nc1OCc1ccncn1` [Embodiment 31], in that order: 34.1% and 43.8 µg/mL (≈ 129 µM).
The matching figures for `COCc1ccc(COc2nn3c(-c4cc(C)on4)nnc3cc2OC)nc1` [Embodiment 32]: 41.6% and 262 µg/mL (≈ 686 µM).
Regarding `COc1cc2nnc(-c3cc(C)on3)n2nc1OCc1ccccn1` [Embodiment 33, 3-(7-Methoxy-6-(pyridinyl-2-methoxy)-[1,2,4]-triazolo[4,3-b]pyridazin-3-yl)-5-methylisoxazole], the inhibition at 0.1 µM at α5-GABAA receptor came out at 40.4%. This molecule yielded a solubility (thermodynamic) at 4 h in data set [1] of 32.3 µg/mL (≈ 95.5 µM).
The matching figures for `COc1cc2nnc(-c3cc(C)on3)n2nc1OCc1ccc(=O)n(CCCC#N)n1` [Embodiment 36]: 25.9% and 123 µg/mL (≈ 290 µM).
In the case of `COc1cc2nnc(-c3cc(C)on3)n2nc1OCc1cccnn1` [Embodiment 39], the inhibition at 0.1 µM at α5-GABAA receptor was 36.5%. The molecule further displayed a solubility (thermodynamic) at 4 h in data set [1] of 180 µg/mL (≈ 531 µM).
The matching figures for `COc1ccc(COc2nn3c(-c4cc(C)on4)nnc3cc2OC)nn1` [Embodiment 43]: 44.2% and 48.7 µg/mL (≈ 132 µM).
With `COc1ccc(COc2nn3c(-c4cc(CO)on4)nnc3cc2OC)nc1` [Embodiment 47, (3-(7-Methoxy-6-((5-methoxypyridin-2-yl)methoxy)-[1,2,4]triazolo[4,3-b]pyridazine-3-yl)isoxazol-5-yl)methanol], the inhibition at 0.1 µM on α5-GABAA receptor turned out to be 45.2%. The solubility (thermodynamic) at 4 h in data set [1] is 40.4 µg/mL (≈ 105 µM).
On to `COc1cnnc(COc2nn3c(-c4cc(C)on4)nnc3cc2OC)c1` [Embodiment 49], for which the inhibition at 0.1 µM on α5-GABAA receptor amounted to 37.2%. For the same molecule, in data set [1], the solubility (thermodynamic) at 4 h was 143 µg/mL (≈ 386 µM).
For `COCc1cccc(COc2nn3c(-c4cc(C)on4)nnc3cc2OC)n1` [Embodiment 50], in that order: 38.8% and 83 µg/mL (≈ 217 µM).
For `COCCCOc1ccnc(COc2nn3c(-c4cc(C)on4)nnc3cc2OC)c1` [Embodiment 55], in that order: 25.1% and 38 µg/mL (≈ 89.1 µM).
The matching figures for `COCCN1Cc2nc(COc3nn4c(-c5cc(C)on5)nnc4cc3OC)ccc2C1=O` [Embodiment 66]: 62% and 146 µg/mL (≈ 323 µM).
Regarding `CCN1Cc2ccc(COc3nn4c(-c5cc(C)on5)nnc4cc3OC)nc2C1` [Embodiment 68], the inhibition at 0.1 µM on α5-GABAA receptor came to 51.3%. Besides, the thermodynamic solubility at 4 h in data set [1] was 146 µg/mL (≈ 358 µM).
Consider `COCCn1cccc(COc2nn3c(-c4cc(C)on4)nnc3cc2OC)c1=O` [Embodiment 75], for which the inhibition at 0.1 µM at α5-GABAA receptor was found to be 44.3%. Moreover, in data set [1], the thermodynamic solubility at 4 h is 52.4 µg/mL (≈ 127 µM).
For the molecule `COc1cc2nnc(-c3cc(C)on3)n2nc1OCc1ccc2c(n1)CCNC2` [Embodiment 78], at α5-GABAA receptor, the inhibition at 0.1 µM is 43.4%. Also, the thermodynamic solubility at 4 h in data set [1] was 255 µg/mL (≈ 648 µM).
As to `COCCN1CCc2nc(COc3nn4c(-c5cc(C)on5)nnc4cc3OC)ccc2C1` [Embodiment 80], the inhibition at 0.1 µM at α5-GABAA receptor was found to be 47.2%. In addition, the thermodynamic solubility at 4 h in data set [1] was 195 µg/mL (≈ 432 µM).
As to `COCCOc1cnc(COc2nn3c(-c4cc(C)on4)nnc3cc2OC)cn1` [Embodiment 85], the inhibition at 0.1 µM at α5-GABAA receptor was found to be 57.3%. The molecule further showed a solubility (thermodynamic) at 4 h in data set [1] of 53.9 µg/mL (≈ 130 µM).
The matching figures for `COc1cc2nnc(-c3cc(C)on3)n2nc1OCc1ccc2c(n1)CCN(Cc1ncccn1)C2=O` [Embodiment 88, 2-(((7-Methoxy-3-(5-methylisoxazol-3-yl)-[1,2,4]triazolo[4,3-b]pyridazin-6-yl)oxy)methyl)-6-(pyrimidin-2-ylmethyl)-7,8-dihydro-1,6-naphthyridin-5(6H)-one]: 32.5% and 60.3 µg/mL (≈ 121 µM).
On to `COc1cc2nnc(-c3cc(C)on3)n2nc1OCc1ccc2c(n1)CCN(CCC#N)C2` [Embodiment 90], for which, on α5-GABAA receptor, the inhibition at 0.1 µM was 64.9%. This molecule also had a thermodynamic solubility at 4 h in data set [1] of 84.9 µg/mL (≈ 190 µM).
Take `COc1cc2nnc(-c3cc(C)on3)n2nc1OCc1ccc2c(cnn2CCc2ccccc2)n1` [Embodiment 229, 3-(7-Methoxy-6-(((1-phenethyl-1H-pyrazolo[4,3-b]pyridin-5-yl]methoxy])-[1,2,4]triazolo[4,3-b]pyridazin-3-yl)-5-methylisoxazole]: on α5-GABAA receptor, the inhibition at 0.1 µM came to 30.8%.
Still for that read-out and setting: the value for `COc1cc2nnc(-c3cc(C)on3)n2nc1OCc1ccc2nn(CCc3ccccc3)cc2n1` [Embodiment 230, 3-(7-Methoxy-6-(((2-phenethyl-2H-pyrazolo[4,3-b]pyridin-5-yl]methoxy])-[1,2,4]triazolo[4,3-b]pyridazin-3-yl)-5-methylisoxazole] was 57.2%; that for `COc1cc2nnc(-c3cc(C)on3)n2nc1OCc1ccc2nn(C(C)C)cc2n1` [Embodiment 235] was 43.5%; that for `COc1cc2nnc(-c3cc(C)on3)n2nc1OCc1ccc2c(cnn2C(C)C)n1` [Embodiment 236] was 54.8%.
Same read-out and setting: the value for `COc1cc2nnc(-c3cc(C)on3)n2nc1OCc1ccc2nn(C)cc2n1` [Embodiment 237] was 57.9%.
On the same count and under the same terms, the figure for `COc1cc2nnc(-c3cc(C)on3)n2nc1OCc1ccc2c(cnn2C2CCOCC2)n1` [Embodiment 239] is 48%.
In data set [1], `COCCn1cc2nc(COc3nn4c(-c5cc(C)on5)nnc4cc3OC)ccc2n1` [Embodiment 240] registered a solubility (thermodynamic) at 4 h of 43.5 µg/mL (≈ 99.7 µM).
As for `COc1cc2nnc(-c3cc(C)on3)n2nc1OCc1ccc2c(n1)c(C)nn2C1COC1` [Embodiment 242], on α5-GABAA receptor, the inhibition at 0.1 µM is 54.7%.
On the same count and under the same terms, the value for `CCn1nc(C)c2nc(COc3nn4c(-c5cc(C)on5)nnc4cc3OC)ccc21` [Embodiment 243] was 50.5%.
Same read-out and setting: the value for `CCn1nc2ccc(COc3nn4c(-c5cc(C)on5)nnc4cc3OC)nc2c1C` [Embodiment 244] was 75.1%; that for `COc1cc2nnc(-c3cc(C)on3)n2nc1OCc1ccc2ncn(C3CCOC3)c2n1` (stereo not shown) [Embodiment 246] was 46.6%.
Turning to `COc1cc2nnc(-c3cc(C)on3)n2nc1OCc1ccc2c(ncn2C2CCOCC2)n1` [Embodiment 248], at α5-GABAA receptor, the inhibition at 0.1 µM was 31.4%.
Same read-out and setting: the figure for `CCn1cnc2ccc(COc3nn4c(-c5cc(C)on5)nnc4cc3OC)nc21` [Embodiment 249] is 51.2%; for `COc1cc2nnc(-c3cc(C)on3)n2nc1OCc1ccc2c(ccn2C2COC2)n1` [Embodiment 250] it is 47.4%.
On to `COc1cc2nnc(-c3cc(C)on3)n2nc1OCc1ccc2ccn(C3CCOCC3)c2n1` [Embodiment 252], for which the inhibition at 0.1 µM on α5-GABAA receptor amounted to 42.2%.
In the case of `COc1cc2nnc(-c3cc(C)on3)n2nc1OCc1ccc2c(n1)CN(C1CCOC1)C2` (stereo not shown) [Embodiment 254], the inhibition at 0.1 µM at α5-GABAA receptor came out at 39%.
As to `COc1cc2nnc(-c3cc(C)on3)n2nc1OCc1ccc2c(n1)CN(C1COC1)C2` [Embodiment 255], at α5-GABAA receptor, the inhibition at 0.1 µM worked out at 45.4%.
For the molecule `COc1cc2nnc(-c3cc(C)on3)n2nc1OCc1ccc2c(n1)CN(CCC#N)C2` [Embodiment 256, 3-(2-(((7-Methoxy-3-(5-methylisoxazol-3-yl)-[1,2,4]triazolo[4,3-b]pyridazin-6-yl)oxy)methyl)-5,7-dihydro-6H-pyrrolo[3,4-b]pyridin-6-yl)propanenitrile], the inhibition at 0.1 µM on α5-GABAA receptor is 40.2%.
Still for that read-out and setting: the value for `COc1cc2nnc(-c3cc(C)on3)n2nc1OCc1ccc2c(n1)CN(CCCC#N)C2` [Embodiment 257] was 50%; that for `COc1cc2nnc(-c3cc(C)on3)n2nc1OCc1ccc2nn(C3COC3)c(C)c2n1` [Embodiment 258] was 54.7%.
